Experimental findings from publication PMC3206016, “Putting into Practice Domain-Linear Motif Interaction Predictions for Exploration of Protein Networks” (PLoS ONE, 2011) are described below.

“And” between values parts separate entries of the source, which are not always exact repeats. Equal values may be shown once. Read-outs that look alike come from different tables or passages of the source. Ends that are not written are not given here. Peptide text beside a SMILES is read from it. * marks the point of attachment. Biotin = O=C1N[C@H]2[C@H](CS[C@H]2CCCCC(=O)*)N1

Assay in all cases: SPR binding of MBP-PDZ analyte to immobilised biotinylated peptides
For experiment [1], the target named is T1, SCRIB-34/4 tandem PDZ construct (Homo sapiens, UniProt Q14160).
T1 construct: residues 997–1093, 1097–1193 and 997–1193 of human SCRIB (Uniprot acc.: Q14160-1); made in house; host or cells: E. coli BL21 DE3
T1 sequence (Q14160 997-1193 isoform Q14160-1): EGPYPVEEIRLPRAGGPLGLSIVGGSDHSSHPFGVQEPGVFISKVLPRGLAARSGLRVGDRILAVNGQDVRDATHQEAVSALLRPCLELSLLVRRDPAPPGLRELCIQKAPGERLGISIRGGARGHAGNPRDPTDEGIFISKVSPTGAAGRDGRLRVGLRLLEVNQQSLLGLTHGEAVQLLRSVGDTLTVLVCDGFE
To be noted: SPR Biacore 2000, 25 C, steady state, 1:1 binding isotherm, MBP-PDZ 0-30 µM, to be considered with caution. As for the experimental part: (§1) We opted for the surface plasmon resonance (SPR) method to measure these 190 (19 proteins×2 peptide versions×5 PDZ constructs) interactions. In SPR various concentrations of “analytes” (here, PDZ domains fused to the Maltose Binding Protein (MBP)) flow over surfaces presenting attached “ligands” (here, biotinylated peptides). The amount of analyte interacting with the ligand is measured and quantified in response units (RU). The intensity of this signal is proportional to the binding strength of the assayed interaction (Figure 5A). K [drawing 13] were obtained using a 1∶1 interaction model. However, these calculated K [drawing 14] were rather inaccurate especially for weak interactions. Therefore, we preferred to rank the binding strengths of the 190 interactions using normalised RU signals at equilibrium ( [drawing 15] ) rather than K [drawing 16] (see Methods for details). These normalised [drawing 17] values were plotted in form of a heat map (Figure 5B).
(§2) The cDNA encoding residues 448–572 and 613–752 of mouse MAGI-1 (UniProt acc.: Q6RHR9-1) encoding for MAGI1-2/6 (100% identical to human MAGI1-2/6) and MAGI1-3/6 (99% identical to human MAGI1-3/6) PDZ domains, respectively, were inserted into the NcoI/KpnI sites of the pETM-41 expression vector (EMBL) containing a 6×His-MBP tag followed by a TEV protease cleavage site. A similar cloning strategy was adopted for cDNA bearing residues 997–1093, 1097–1193 and 997–1193 of human SCRIB (Uniprot acc.: Q14160-1) encoding for SCRIB-3/4, SCRIB-4/4 PDZ domains and SCRIB-34/4 tandem PDZ construct, respectively.
(§3) Data were collected on a Biacore 2000 instrument (Biacore AB/GE Healthcare Bio-Sciences Corp., Piscataway, NJ, USA) at 25 [drawing 74] C. SPR experiments (ligand immobilisation and binding measurements) have been performed as described in Fournane et al.. Briefly, biotinylated peptides (instead of GST-fused recombinant peptides) were immobilised on CM5 sensorchips on which Neutravidin was previously attached. The MBP-PDZ domain analyte was injected at 8 to 10 different concentrations ranging from 0 up to 30 [drawing 75] M. Data were processed using the BiaEvaluation 3.2 software (Biacore AB/GE Healthcare Bio-Sciences Corp.) using “double referencing” [78] in which sensorgrams were corrected for buffer effects and bulk refractive index changes.
(§4) The steady-state binding signal ( [drawing 76] ) was derived by averaging the signals in a five second window at equilibrium. Steady-state analysis was performed by fitting the average signal [drawing 77] as a function of total MBP-PDZ concentrations, assuming a simple 1∶1 interaction binding isotherm model. […] Reasons for this inaccuracy are likely to be the following: 1. As previously described, several repetitions of all the measurements are required to determine accurate K [drawing 81] . In our case, such repetitions were not achievable in reasonable time due to the large amount of interactions measured in this study. 2. The highest injected analyte concentration restricts the maximal K [drawing 82] (weakest interaction) that can be accurately obtained. 3. A K [drawing 83] is estimated based on a mathematical extrapolation of observed [drawing 84] signals leading to additional uncertainty. Based on these reasons, we considered the calculated K [drawing 85] not as accurate enough to be used for absolute binding strength comparison in this study. We rather performed a relative analysis of binding strengths using directly [drawing 86] signals which are not biased by any mathematical assumption. We focussed on [drawing 87] signals obtained at 10 [drawing 88] M MBP-PDZ concentration, which have been systematically measured in duplicate. The [drawing 89] signal is directly proportional to the molecular weight of the analyte and the amount of immobilised ligand. Therefore, the [drawing 90] signals were normalised taking those into account before being used for binding strength comparison. […]
In general terms: SPR reads the build-up and loss of mass on a sensor chip optically.

In the next experiment the target is T2, MAGI1-2/6 PDZ domain (Mus musculus, UniProt Q6RHR9).
T2 construct: The cDNA encoding residues 448–572 and 613–752 of mouse MAGI-1 (UniProt acc.: Q6RHR9-1) encoding for MAGI1-2/6; made in house; host or cells: E. coli BL21 DE3
The method, then:
as §1, §2, §3, §4

Another experiment has as its target T3, SCRIB-3/4 PDZ domain (Homo sapiens, UniProt Q14160).
T3 construct: cDNA bearing residues 997–1093, 1097–1193 and 997–1193 of human SCRIB (Uniprot acc.: Q14160-1); made in house; host or cells: E. coli BL21 DE3
T3 sequence (Q14160 997-1093 isoform Q14160-1): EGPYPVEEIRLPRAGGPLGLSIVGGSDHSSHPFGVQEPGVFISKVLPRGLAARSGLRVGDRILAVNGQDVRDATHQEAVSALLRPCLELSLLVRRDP
The settings on record: tentative KD, SPR Biacore 2000, 25 C, steady state, 1:1 binding isotherm, MBP-PDZ 0-30 µM; to be considered with caution. The method, then:
as §1, §2, §3, §4

Another experiment concerns the target T4, SCRIB-4/4 PDZ domain (Homo sapiens, UniProt Q14160).
T4 construct: residues 997–1093, 1097–1193 and 997–1193 of human SCRIB (Uniprot acc.: Q14160-1); made in house; host or cells: E. coli BL21 DE3
T4 sequence (Q14160 1097-1193 isoform Q14160-1): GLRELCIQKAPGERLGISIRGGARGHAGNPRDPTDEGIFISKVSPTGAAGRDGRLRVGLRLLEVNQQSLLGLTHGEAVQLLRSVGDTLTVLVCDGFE
The settings on record: SPR Biacore 2000, 25 C, steady state, 1:1 binding isotherm, MBP-PDZ 0-30 µM; to be considered with caution; read-out: tentative KD. The method, then: as §1, §2, §3, §4

[2] abbreviates: SPR Biacore 2000, 25 C, steady state, 1:1 binding isotherm, MBP-PDZ 0-30 µM, to be considered with caution, read-out: tentative KD.

T2 sequence (Q6RHR9 448-572): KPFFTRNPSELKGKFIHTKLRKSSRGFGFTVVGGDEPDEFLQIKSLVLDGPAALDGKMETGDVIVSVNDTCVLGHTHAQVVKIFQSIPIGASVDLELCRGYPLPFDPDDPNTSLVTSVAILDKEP

As usually defined, the Kd is the constant that tells how readily two partners part at equilibrium. For GSGAGSETSV [VANG2_05], in experiment [1] (read-out: tentative KD), the Kd turned out to be 4 µM.

Take `CC[C@H](C)[C@H](NC(=O)[C@@H](NC(=O)[C@H](CCC(=O)O)NC(=O)[C@H](Cc1c[nH]cn1)NC(=O)CNC(=O)[C@H](C)NC(=O)CNC(=O)[C@H](CO)NC(=O)CNC(=O)CCCC[C@@H]1SC[C@@H]2NC(=O)N[C@@H]21)[C@@H](C)O)C(=O)N[C@H](C(=O)O)C(C)C` [TMEM215_05] (Biotin-GSGAGHETIV-OH): the Kd in experiment [1] (read-out: tentative KD) is 15 µM.

As to `CC(C)C[C@H](NC(=O)[C@H](CCC(N)=O)NC(=O)[C@@H](NC(=O)[C@H](CCC(=O)O)NC(=O)[C@H](CCCNC(=N)N)NC(=O)CNC(=O)[C@H](C)NC(=O)CNC(=O)[C@H](CO)NC(=O)CNC(=O)CCCC[C@@H]1SC[C@@H]2NC(=O)N[C@@H]21)[C@@H](C)O)C(=O)O` [16E6_05] (Biotin-GSGAGRETQL-OH), the Kd at MAGI1-2/6 PDZ domain (tentative KD, SPR Biacore 2000, 25 C, steady state, 1:1 binding isotherm, MBP-PDZ 0-30 µM, to be considered with caution) stood at 7 µM; in experiment [1] (tentative KD) it was 1 µM; at SCRIB-3/4 PDZ domain it was 12 µM.

With KDECVIATEV [DLL1_10], the equilibrium dissociation constant (Kd) on SCRIB-4/4 PDZ domain is 88 µM.

Regarding `CC(C)[C@H](NC(=O)[C@@H](NC(=O)[C@@H](NC(=O)[C@H](CCC(=O)O)NC(=O)[C@H](CCCCN)NC(=O)CNC(=O)[C@H](C)NC(=O)CNC(=O)[C@H](CO)NC(=O)CNC(=O)CCCC[C@@H]1SC[C@@H]2NC(=O)N[C@@H]21)[C@@H](C)O)C(C)C)C(=O)O` [MARCH3_05] (Biotin-GSGAGKETVV-OH), the dissociation constant Kd in experiment [1] (read-out: tentative KD) came to 7 µM.

With KPGKGSETVV [FZD4_10], the dissociation constant (Kd) on MAGI1-2/6 PDZ domain (setting [2]) amounted to 23 µM.

On to `CC(C)C[C@H](NC(=O)[C@H](CCC(N)=O)NC(=O)[C@@H](NC(=O)[C@H](CCC(=O)O)NC(=O)[C@H](CCCNC(=N)N)NC(=O)[C@H](CCCNC(=N)N)NC(=O)[C@@H](NC(=O)[C@H](CCCNC(=N)N)NC(=O)[C@H](CO)NC(=O)[C@@H](N)CO)[C@@H](C)O)[C@@H](C)O)C(=O)O` [16E6], for which the Kd at MAGI1-2/6 PDZ domain (this study (Kd), Table S3, column this study, SPR) was 3 µM; in experiment [1] (tentative KD), 3 µM; at SCRIB-3/4 PDZ domain, 18 µM and 15 µM.

As for NPDALPETLV [ARHGAP6_10], the Kd at MAGI1-2/6 PDZ domain (setting [2]) stood at 18 µM.

Take `CC(C)[C@H](NC(=O)[C@H](Cc1ccc(O)cc1)NC(=O)[C@H](CO)NC(=O)[C@H](CCC(=O)O)NC(=O)[C@H](CCCCN)NC(=O)CNC(=O)[C@H](C)NC(=O)CNC(=O)[C@H](CO)NC(=O)CNC(=O)CCCC[C@@H]1SC[C@@H]2NC(=O)N[C@@H]21)C(=O)O` [ABC1_05] (Biotin-GSGAGKESYV-OH): the dissociation constant Kd in experiment [1] (read-out: tentative KD) came out at 10 µM.

With `CC(C)[C@H](NC(=O)[C@H](CCCNC(=N)N)NC(=O)[C@@H](NC(=O)[C@H](CCC(=O)O)NC(=O)[C@H](CCCCN)NC(=O)CNC(=O)[C@H](C)NC(=O)CNC(=O)[C@H](CO)NC(=O)CNC(=O)CCCC[C@@H]1SC[C@@H]2NC(=O)N[C@@H]21)[C@@H](C)O)C(=O)O` [CYSLTR2_05] (Biotin-GSGAGKETRV-OH), the dissociation constant (Kd) stood at 10 µM in experiment [1] (read-out: tentative KD) and 123 µM at SCRIB-4/4 PDZ domain.

For the compound CNTVTVETVV [MAS_10], in experiment [1] (read-out: tentative KD), the Kd was determined as 3 µM.

As to `CC(C)C[C@H](NC(=O)[C@@H](NC(=O)[C@H](CCC(=O)O)NC(=O)[C@@H]1CCCN1C(=O)CNC(=O)[C@H](C)NC(=O)CNC(=O)[C@H](CO)NC(=O)CNC(=O)CCCC[C@@H]1SC[C@@H]2NC(=O)N[C@@H]21)[C@@H](C)O)C(=O)N[C@H](C(=O)O)C(C)C` [ARHGAP6_05] (Biotin-GSGAGPETLV-OH), the dissociation constant (Kd) at SCRIB-4/4 PDZ domain amounted to 104 µM.

For the compound QGRWDHETIV [TMEM215_10], in experiment [1] (read-out: tentative KD), the dissociation constant Kd was determined as 9 µM.
